Measurements reported in patent US11807693B2 (priority 2014, dated 2023).
Starred links: 1 amine or outer side, 2 acyl side, 3 side chain; linkers in the order of their positions; H or OH if unused. Non-standard residues stand in square brackets, D forms with d. Residues, ends and D or L forms follow the SMILES beside them. *: point of attachment. Oic = O=C(O)[C@@H]1C[C@@H]2CCCC[C@@H]2N1; Phe(4-Cl) = N[C@@H](Cc1ccc(Cl)cc1)C(=O)O; γGlu = O=C(O)[C@H](CCC(=O)[*:2])N[*:1]; NMeR = CN[C@@H](CCCNC(=N)N)C(=O)O; Tridecanoyl = CCCCCCCCCCCCC(=O)*; hArg = N=C(N)NCCCC[C@H](N)C(=O)O; Cha = N[C@@H](CC1CCCCC1)C(=O)O; Gly(N-CH2CH2OH) = O=C(O)CNCCO; αMeP = C[C@@]1(C(=O)O)CCCN1; β3hV = CC(C)[C@H](N)CC(=O)O; β3hP = O=C(O)C[C@@H]1CCCN1; Pip = O=C(O)[C@@H]1CCCCN1; Nle = CCCC[C@H](N)C(=O)O; AEEA = NCCOCCOCC(=O)O; Aib = CC(C)(N)C(=O)O

Columns and labels:
Type in all cases: in vitro ADME
[1] = In vitro stability in rat plasma
Method in brief: (§1)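 Apelin peptides were spiked at 5 μM final into rat plasma, liver homogenate or kidney homogenate and incubated at 37° C. for up to 4 hr. Aliquots were quenched with MeOH containing internal standard, centrifuged, and supernatants analyzed by high resolution LC-MS.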

[2] = In vitro stability in rat liver homogenate; settings: tissue homogenate
Method in brief: as §1

[3] = In vitro stability in rat kidney homogenate; settings: rat, tissue homogenate
Method: Apelin peptides were spiked into rat plasma, liver homogenate, and kidney homogenate, which were obtained from commercial sources, to a final concentration of 5 μM. The samples were then incubated at 37° C. over a period of 4 hr. […] In a typical experiment, an aliquot of 100 μL of sample was taken from the incubation vial, followed by addition of 300 μL of MeOH containing internal standard. The quenched sample was centrifuged at 5500 g for 15 min after 15 min vortex in room temperature. The supernatant was then analyzed by high resolution LC-MS. […] In vitro plasma, […], and kidney stability results are shown below in Table 14.

SMILES	remaining at 4 h, 5 μM [1]	remaining at 4 h, 5 μM [2]	remaining at 4 h, 5 μM [3]
CCCCCCCCCCCCC(=O)N[C@@H](CCC(=O)NCCOCCOCC(=O)NCCOCCOCC(=O)N[C@H](CC(=O)N[C@@H](CCCNC(=N)N)C(=O)N1CCC[C@H]1C(=O)N(C)[C@@H](CCCNC(=N)N)C(=O)N[C@@H](CC1CCCCC1)C(=O)N[C@@H](CO)C(=O)N[C@@H](Cc1c[nH]cn1)C(=O)N[C@@H](CCCCN)C(=O)NCC(=O)N1[C@H](C(=O)N[C@@H](CCCC)C(=O)N2CCC[C@H]2C(=O)N[C@@H](Cc2ccc(Cl)cc2)C(=O)O)C[C@@H]2CCCC[C@@H]21)C(C)C)C(=O)O [compound 393] ({Tridecanoyl-γGlu-AEEA-AEEA}-[β3hV]RP[NMeR][Cha]SHKG[Oic][Nle]P[Phe(4-Cl)]-OH)	> 90%	12%	2%
CCCCCCCCCCCCC(=O)N[C@@H](CCC(=O)NCCOCCOCC(=O)NCCOCCOCC(=O)N[C@@H](CCC(N)=O)C(=O)N[C@@H](CCCNC(=N)N)C(=O)N1CCC[C@H]1C(=O)N(C)[C@@H](CCCNC(=N)N)C(=O)N[C@@H](CC1CCCCC1)C(=O)N[C@@H](CO)C(=O)N[C@@H](Cc1c[nH]cn1)C(=O)N[C@@H](CCCCN)C(=O)NCC(=O)N1[C@H](C(=O)N[C@@H](CCCC)C(=O)N2CCC[C@@]2(C)C(=O)N[C@@H](Cc2ccc(Cl)cc2)C(=O)O)C[C@@H]2CCCC[C@@H]21)C(=O)O [compound 412] ({Tridecanoyl-γGlu-AEEA-AEEA}-QRP[NMeR][Cha]SHKG[Oic][Nle][αMeP][Phe(4-Cl)]-OH)	77%	76%	3%
CCCCCCCCCCCCC(=O)N[C@@H](CCC(=O)NCCOCCOCC(=O)NCCOCCOCC(=O)N[C@@H](CCC(N)=O)C(=O)N[C@@H](CCCNC(=N)N)C(=O)N1CCC[C@H]1C(=O)N(C)[C@@H](CCCNC(=N)N)C(=O)N[C@@H](CC(C)C)C(=O)N(CCO)CC(=O)N[C@@H](Cc1c[nH]cn1)C(=O)N[C@@H](CCCCN)C(=O)NCC(=O)N1CCC[C@H]1C(=O)N[C@@H](CCCC)C(=O)N1CCC[C@H]1C(=O)N[C@@H](Cc1ccc(Cl)cc1)C(=O)O)C(=O)O [compound 467] ({Tridecanoyl-γGlu-AEEA-AEEA}-QRP[NMeR]L[Gly(N-CH2CH2OH)]HKGP[Nle]P[Phe(4-Cl)]-OH)	27%	87%	83%
CCCCCCCCCCCCC(=O)N[C@@H](CCC(=O)NCCOCCOCC(=O)NCCOCCOCC(=O)N[C@@H](CCCCNC(=N)N)C(=O)N[C@@H](CCC(N)=O)C(=O)N[C@@H](CCCCNC(=N)N)C(=O)N1CCC[C@H]1C(=O)N[C@@H](CCCCNC(=N)N)C(=O)N[C@@H](CC1CCCCC1)C(=O)N[C@@H](CO)C(=O)N[C@@H](Cc1c[nH]cn1)C(=O)N[C@@H](CCCCN)C(=O)NCC(=O)N1[C@H](C(=O)N[C@@H](CCCC)C(=O)N2CCC[C@H]2C(=O)N[C@@H](Cc2ccc(Cl)cc2)C(=O)O)C[C@@H]2CCCC[C@@H]21)C(=O)O [compound 490] ({Tridecanoyl-γGlu-AEEA-AEEA}-[hArg]Q[hArg]P[hArg][Cha]SHKG[Oic][Nle]P[Phe(4-Cl)]-OH)	88%	9%	< 1%
CCCCCCCCCCCCCCCCC(=O)N[C@@H](CCC(=O)NCCOCCOCC(=O)NCCOCCOCC(=O)N[C@@H](CCC(N)=O)C(=O)N[C@@H](CCCNC(=N)N)C(=O)N1CCC[C@H]1C(=O)N(C)[C@@H](CCCNC(=N)N)C(=O)N[C@@H](CC(C)C)C(=O)N[C@@H](CO)C(=O)N[C@@H](Cc1c[nH]cn1)C(=O)N[C@@H](CCCCN)C(=O)NCC(=O)N1CCC[C@H]1C(=O)N[C@@H](CCCC)C(=O)N1CCC[C@H]1C(=O)N[C@@H](Cc1ccc(Cl)cc1)C(=O)O)C(=O)O [compound 496]	86%	3%	< 1%
CCCCCCCCCCCCC(=O)N[C@@H](CCC(=O)NCCOCCOCC(=O)NCCOCCOCC(=O)N[C@H](CCC(N)=O)C(=O)N[C@@H](CCCNC(=N)N)C(=O)N1CCC[C@H]1C(=O)N(C)[C@@H](CCCNC(=N)N)C(=O)N[C@@H](CC1CCCCC1)C(=O)N[C@@H](CO)C(=O)N[C@@H](Cc1c[nH]cn1)C(=O)N[C@@H](CCCCN)C(=O)NCC(=O)N1CCC[C@@]1(C)C(=O)N[C@@H](CCCC)C(=O)NC(C)(C)C(=O)N[C@@H](Cc1ccc(Cl)cc1)C(=O)O)C(=O)O [compound 498] ({Tridecanoyl-γGlu-AEEA-AEEA}-[dQ]RP[NMeR][Cha]SHKG[αMeP][Nle][Aib][Phe(4-Cl)]-OH)	> 90%	> 90%	23%
CCCCCCCCCCCCC(=O)N[C@@H](CCC(=O)NCCOCCOCC(=O)NCCOCCOCC(=O)N[C@H](CCC(N)=O)C(=O)N[C@@H](CCCNC(=N)N)C(=O)N1CCC[C@@]1(C)C(=O)N[C@@H](CCCCNC(=N)N)C(=O)N[C@H](CC(=O)N[C@@H](CO)C(=O)N[C@@H](Cc1c[nH]cn1)C(=O)N[C@@H](CCCCN)C(=O)NCC(=O)N1[C@H](C(=O)N[C@@H](CCCC)C(=O)N2CCC[C@@]2(C)C(=O)N[C@@H](Cc2ccc(Cl)cc2)C(=O)O)C[C@@H]2CCCC[C@@H]21)C(C)C)C(=O)O [compound 502] ({Tridecanoyl-γGlu-AEEA-AEEA}-[dQ]R[αMeP][hArg][β3hV]SHKG[Oic][Nle][αMeP][Phe(4-Cl)]-OH)	> 90%	34%	19%
CCCCCCCCCCCCC(=O)N[C@@H](CCC(=O)NCCOCCOCC(=O)NCCOCCOCC(=O)N[C@H](CCC(N)=O)C(=O)N[C@@H](CCCNC(=N)N)C(=O)N1CCC[C@@]1(C)C(=O)N[C@@H](CCCCNC(=N)N)C(=O)N[C@H](CC(=O)N[C@@H](CO)C(=O)N[C@@H](Cc1c[nH]cn1)C(=O)N[C@@H](CCCCN)C(=O)NCC(=O)N1CCCC[C@H]1C(=O)N[C@@H](CCCC)C(=O)N1CCC[C@@]1(C)C(=O)N[C@@H](Cc1ccc(Cl)cc1)C(=O)O)C(C)C)C(=O)O [compound 503] ({Tridecanoyl-γGlu-AEEA-AEEA}-[dQ]R[αMeP][hArg][β3hV]SHKG[Pip][Nle][αMeP][Phe(4-Cl)]-OH)	85%	7%	2%
CCCCCCCCCCCCC(=O)N[C@@H](CCC(=O)NCCOCCOCC(=O)NCCOCCOCC(=O)N[C@H](CCC(N)=O)C(=O)N[C@@H](CCCNC(=N)N)C(=O)N1CCCC1(C)C(=O)N[C@@H](CCCCNC(=N)N)C(=O)NC(CC(=O)N[C@@H](CO)C(=O)N[C@@H](Cc1c[nH]cn1)C(=O)N[C@@H](CCCCN)C(=O)NCC(=O)N1CCCC1(C)C(=O)N[C@@H](CCCC)C(=O)N1CCCC1(C)C(=O)N[C@@H](Cc1ccc(Cl)cc1)C(=O)O)C(C)C)C(=O)O (stereo partly drawn) [compound 504]	> 90%	11%	4%
CCCCCCCCCCCCC(=O)N[C@@H](CCC(=O)NCCOCCOCC(=O)NCCOCCOCC(=O)N[C@H](CCC(N)=O)C(=O)N[C@@H](CCCNC(=N)N)C(=O)N1CCCC[C@H]1C(=O)N(C)[C@@H](CCCNC(=N)N)C(=O)N[C@@H](CC1CCCCC1)C(=O)N[C@@H](CO)C(=O)N[C@@H](Cc1c[nH]cn1)C(=O)N[C@@H](CCCCN)C(=O)NCC(=O)N1[C@H](C(=O)N[C@@H](CCCC)C(=O)NC(C)(C)C(=O)N[C@@H](Cc2ccc(Cl)cc2)C(=O)O)C[C@@H]2CCCC[C@@H]21)C(=O)O [compound 517] ({Tridecanoyl-γGlu-AEEA-AEEA}-[dQ]R[Pip][NMeR][Cha]SHKG[Oic][Nle][Aib][Phe(4-Cl)]-OH)	> 90%	19%	< 1%
CCCCCCCCCCCCC(=O)N[C@@H](CCC(=O)N[C@@H](CCC(=O)NCCOCCOCC(=O)N[C@H](CCC(N)=O)C(=O)N[C@@H](CCCNC(=N)N)C(=O)N1CCC[C@H]1C(=O)N(C)[C@@H](CCCNC(=N)N)C(=O)N[C@@H](CC1CCCCC1)C(=O)N[C@@H](CO)C(=O)N[C@@H](Cc1c[nH]cn1)C(=O)N[C@@H](CCCCN)C(=O)NCC(=O)N1[C@H](C(=O)N[C@@H](CCCC)C(=O)NC(C)(C)C(=O)N[C@@H](Cc2ccc(Cl)cc2)C(=O)O)C[C@@H]2CCCC[C@@H]21)C(=O)O)C(=O)O [compound 535] ({Tridecanoyl-γGlu-γGlu-AEEA}-[dQ]RP[NMeR][Cha]SHKG[Oic][Nle][Aib][Phe(4-Cl)]-OH)	89%	3%	< 1%
CCCCCCCCCCCCC(=O)N[C@H](CC(=O)O)C(=O)NCCOCCOCC(=O)NCCOCCOCC(=O)N[C@H](CCC(N)=O)C(=O)N[C@@H](CCCNC(=N)N)C(=O)N1CCC[C@H]1C(=O)N(C)[C@@H](CCCNC(=N)N)C(=O)N[C@@H](CC1CCCCC1)C(=O)N[C@@H](CO)C(=O)N[C@@H](Cc1c[nH]cn1)C(=O)N[C@@H](CCCCN)C(=O)NCC(=O)N1[C@H](C(=O)N[C@@H](CCCC)C(=O)NC(C)(C)C(=O)N[C@@H](Cc2ccc(Cl)cc2)C(=O)O)C[C@@H]2CCCC[C@@H]21 [compound 538] (Tridecanoyl-[dD][AEEA][AEEA][dQ]RP[NMeR][Cha]SHKG[Oic][Nle][Aib][Phe(4-Cl)]-OH)	73%	2%	< 1%
CCCCCCCCCCCCC(=O)N[C@@H](CCC(=O)NCCOCCOCC(=O)NCCOCCOCC(=O)N[C@@H](CCC(N)=O)C(=O)N1CCC[C@H]1CC(=O)N(C)[C@@H](CCCNC(=N)N)C(=O)N[C@@H](CC1CCCCC1)C(=O)N[C@@H](CO)C(=O)N[C@@H](Cc1c[nH]cn1)C(=O)N[C@@H](CCCCN)C(=O)NCC(=O)N1[C@H](C(=O)N[C@@H](CCCC)C(=O)NC(C)(C)C(=O)N[C@@H](Cc2ccc(Cl)cc2)C(=O)O)C[C@@H]2CCCC[C@@H]21)C(=O)O [compound 550] ({Tridecanoyl-γGlu-AEEA-AEEA}-Q[β3hP][NMeR][Cha]SHKG[Oic][Nle][Aib][Phe(4-Cl)]-OH)	> 90%	2%	< 1%
